Experimental data: PubChem BioAssay AID1963826 (Molecular Pharmacology Branch, DTP, NCI, 2024)

System: 926638-142-R-J1-PDC complex spheroid viability
Experiment: Anticancer human tumor 926638-142-R-J1-PDC patient-derived endometrial carcinoma cell line growth inhibition [POLQ]
Conditions: for IC50: curve of first compound; for viability, T/C: stronger effect = lower value
Experimental: Multicellular complex tumor spheroid response to Polymerase (POL) inhibitors (novobiocin, ART-558, RP6685) in combination with a variety of drugs and investigational agents in selected tumor cell lines
The POL inhibitors (novobiocin, ART-558, and RP6685) were evaluated both individually and in combination with standard of care and investigational anticancer small molecules within a complex spheroid model of solid tumors. . Complex spheroids include a stromal component modeled by human endothelial cells (HUVEC) and fibroblasts modeled by human mesenchymal stem cells (MSCs). The concentration ranges selected for each drug and investigational agent were based upon clinically achievable concentrations if the clinical Cmax of the agent was known.
Compounds. The drugs and investigational agents: novobiocin (NSC847541), ART-558 (NSC835418), RP-6685 (NSC848927), peposertib (NSC802822), ceralasertib (NSC780249), elimusertib (NSC800525), camonsertib (NSC841442), AZD-1390 (NSC803789), olaparib (NSC753686), talazoparib (NSC767125), rucaparib (NSC756644), sotorasib (NSC818433), MRTX-1133 (NSC836407), SN-38 (NSC673596), topotecan (NSC609699), epotoside (NSC141540), doxorubicin (NSC123127), gemcitabine (NSC613327), 5-fluorouracil (NSC19893), paclitaxel (NSC125973), vemurafenib (NSC761431), MSA-2 (NSC828583), SN-011 (NSC837082), adavosertib (NSC754352), prexasertib (NSC758257), carboplatin (NSC241240) and oxaliplatin (NSC266046), were obtained from the National Cancer Institute (NCI) Developmental Therapeutics Program Chemical Repository (21). The FDA-approved anticancer drug set is available from the Developmental Therapeutics Program at https://dtp.cancer.gov/organization/dscb/obtaining/. […] The stock solutions were prepared in dimethyl sulfoxide (DMSO, Sigma-Aldrich, St. Louis, MO, cat. D2650), except for the platinum compounds which were prepared in saline (Quality Biological, Gaithersburg, MD, cat. 114-055-101), at 800-fold the tested concentration and stored at -70 degrees C prior to their use. All drugs and investigational agents were tested over a range starting from a high concentration at or near the clinical Cmax and decreasing in half-log increments. If the clinical Cmax for an agent had not been determined, the highest concentration tested was 10 microM, except for SN-38, which was tested at a high concentration of 1 microM.
Cell Culture. All cells were maintained in an incubator at 37 degrees C and 5% CO2 with 95% humidity. The PDC lines were cultured according to standard operating procedures established by the NCI PDMR (https://pdmr.cancer.gov). Table 3 of the manuscript, lists the cell lines along with the number of the three cell types plated to form the mct-spheroids and media for tumor cell growth. After thawing, all PDC lines, except 997537-175-T-J1-PDC and 415267-285-R-J2-PDC, were cultured in Matrigel-coated flasks prepared with a working solution of 1X Ham's F-12 nutrient mix, without supplementation (Thermo Fisher Scientific, cat. 11765054), 100 U/mL penicillin-streptomycin (Thermo Fisher Scientific, cat. 15140122), and 2.5% Matrigel (Corning Inc., Corning, NY, cat. 354248) for the first three passages. The two PDC lines 997537-175-T-J1-PDC and 415267-285-R-J2-PDC were cultured on uncoated flasks. The 857933-349-R-J2-PDC line was cultured in 6C/Colon 1B media containing advanced DMEM/F-12 (Thermo Fisher Scientific, cat. 12634028), 10 mM HEPES (Thermo Fisher Scientific, cat. 15630080), 1X GlutaMAX supplement (Thermo Fisher Scientific, cat. 35050061), 0.1 mg/mL primocin (InvivoGen, San Diego, CA, cat. ant-pm-2), 10% defined fetal bovine serum, heat inactivated (HyClone Laboratories Inc., Logan, UT, cat. SH30070.03HI), 50% L-WRN conditioned media (ATCC, cat. CRL-3276), 1.25 mM N-Acetyl-L-cysteine (Sigma-Aldrich, cat. A9165), 10 mM nicotinamide (Sigma-Aldrich, cat. N0636), 1X B-27 supplement (Thermo Fisher Scientific, cat. 17504044), 1X N-2 supplement (Thermo Fisher Scientific, cat. […]
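Also: spheroids exposed to drugs for one week before readout.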
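For viability, T/C in this document: percent viability relative to DMSO vehicle control wells set as 100%.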

## O=c1[nH]cc(F)c(=O)[nH]1 + COC1C(OC(N)=O)C(O)C(Oc2ccc3c(O)c(NC(=O)c4ccc(O)c(CC=C(C)C)c4)c(=O)oc3c2C)OC1(C)C
Second compound 0.0316 µM
  IC50: > 10 µM
Second compound 0.1 µM
  IC50: > 10 µM
Second compound 0.316 µM
  IC50: > 10 µM
Second compound 1 µM
  IC50: > 10 µM
Second compound 3.16 µM
  IC50: > 10 µM
Second compound 10 µM
  IC50: > 10 µM
Second compound 0.0316 µM, first compound 0.0316 µM
  viability, T/C: 124%
Second compound 0.0316 µM, first compound 0.1 µM
  viability, T/C: 110%
Second compound 0.0316 µM, first compound 0.316 µM
  viability, T/C: 94.1%
Second compound 0.0316 µM, first compound 1 µM
  viability, T/C: 101%
Second compound 0.0316 µM, first compound 3.16 µM
  viability, T/C: 98.4%
Second compound 0.0316 µM, first compound 10 µM
  viability, T/C: 94.1%
Second compound 0.1 µM, first compound 0.0316 µM
  viability, T/C: 106%
Second compound 0.1 µM, first compound 0.1 µM
  viability, T/C: 90.8%
Second compound 0.1 µM, first compound 0.316 µM
  viability, T/C: 104%
Second compound 0.1 µM, first compound 1 µM
  viability, T/C: 90.4%
Second compound 0.1 µM, first compound 3.16 µM
  viability, T/C: 103%
Second compound 0.1 µM, first compound 10 µM
  viability, T/C: 71%
Second compound 0.316 µM, first compound 0.0316 µM
  viability, T/C: 125%
Second compound 0.316 µM, first compound 0.1 µM
  viability, T/C: 105%
Second compound 0.316 µM, first compound 0.316 µM
  viability, T/C: 87.3%
Second compound 0.316 µM, first compound 1 µM
  viability, T/C: 84.1%
Second compound 0.316 µM, first compound 3.16 µM
  viability, T/C: 98.2%
Second compound 0.316 µM, first compound 10 µM
  viability, T/C: 82.7%
Second compound 1 µM, first compound 0.0316 µM
  viability, T/C: 98.3%
Second compound 1 µM, first compound 0.1 µM
  viability, T/C: 106%
Second compound 1 µM, first compound 0.316 µM
  viability, T/C: 90.1%
Second compound 1 µM, first compound 1 µM
  viability, T/C: 79.6%
Second compound 1 µM, first compound 3.16 µM
  viability, T/C: 79.3%
Second compound 1 µM, first compound 10 µM
  viability, T/C: 75.4%
Second compound 3.16 µM, first compound 0.0316 µM
  viability, T/C: 102%
Second compound 3.16 µM, first compound 0.1 µM
  viability, T/C: 85.9%
Second compound 3.16 µM, first compound 0.316 µM
  viability, T/C: 90.6%
Second compound 3.16 µM, first compound 1 µM
  viability, T/C: 86.9%
Second compound 3.16 µM, first compound 3.16 µM
  viability, T/C: 79.5%
Second compound 3.16 µM, first compound 10 µM
  viability, T/C: 83.6%
Second compound 10 µM, first compound 0.0316 µM
  viability, T/C: 104%
Second compound 10 µM, first compound 0.1 µM
  viability, T/C: 96.6%
Second compound 10 µM, first compound 0.316 µM
  viability, T/C: 77.1%
Second compound 10 µM, first compound 1 µM
  viability, T/C: 86.6%
Second compound 10 µM, first compound 3.16 µM
  viability, T/C: 114%
Second compound 10 µM, first compound 10 µM
  viability, T/C: 83.4%
